Test results from publication PMC7756341, “Liposomal FRET Assay Identifies Potent Drug‐Like Inhibitors of the Ceramide Transport Protein (CERT)” (Chemistry (Weinheim an Der Bergstrasse, Germany), 2020).

What follows are molecules tested against T1, CERT (Homo sapiens, UniProt Q9Y5P4) (assay: NR-ceramide fluorescence competition assay). Conditions: 1 μM Nile red ceramide.
T1 construct: made in house; host or cells: E. coli BL21 (DE3), pET-28a(+)
T1 sequence (Q9Y5P4 1-598 isoform Q9Y5P4-2): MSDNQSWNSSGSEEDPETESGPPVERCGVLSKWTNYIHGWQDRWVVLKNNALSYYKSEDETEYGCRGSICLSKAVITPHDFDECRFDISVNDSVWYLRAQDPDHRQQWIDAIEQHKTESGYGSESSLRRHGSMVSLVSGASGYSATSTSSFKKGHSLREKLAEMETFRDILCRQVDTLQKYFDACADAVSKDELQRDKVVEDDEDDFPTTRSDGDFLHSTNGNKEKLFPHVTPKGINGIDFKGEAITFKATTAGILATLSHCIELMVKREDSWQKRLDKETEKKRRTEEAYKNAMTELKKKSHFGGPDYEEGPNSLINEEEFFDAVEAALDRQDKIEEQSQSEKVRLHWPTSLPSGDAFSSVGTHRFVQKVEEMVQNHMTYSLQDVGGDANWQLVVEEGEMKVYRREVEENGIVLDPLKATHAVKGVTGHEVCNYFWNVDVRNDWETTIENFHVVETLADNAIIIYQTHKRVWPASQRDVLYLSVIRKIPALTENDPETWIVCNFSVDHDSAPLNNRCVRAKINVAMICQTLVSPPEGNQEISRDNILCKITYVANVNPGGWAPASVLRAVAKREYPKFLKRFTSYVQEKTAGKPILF
Format: binding
Text: Having the identified hits from CERT-transfer assay, we were interested in further understanding the relationship between the CERT-transfer inhibitory activity and CERT-binding affinity. With this goal in mind, we have developed a homogenous competitive assay based on the binding of fluorescently-labeled ceramide to CERT-protein (Fig S6). It’s well known that Nile Red is […]
than in hydrophilic one. Based on this knowledge, we have designed a fluorescently-labeled probe in which the Nile Red-tag was incorporated into the ceramide fatty acid moiety. The NR-ceramide […]
excellent signal-to-noise ratio (28-fold, Fig S7.A). Equilibration takes ~1h of incubation at 30°C.
Furthermore, this assay is a simple mix-and read format and uses only low amounts of fluorophore (1µM) and CERT-protein (12.5µg/assay).
The assay was performed in non-binding black-bottom 96-well microplate (Greiner Bio-One). To each well was added 1µL HPA12 (final concentration 2.5µM) or DMSO, followed by 98 µL of the CERT aliquot (12.5µg/well). After the mixture was incubated for 40 min at 30°C, 1µL NR-ceramide (final concentration 1µM) was added. Controls were triplicates of 10mM Tris.HCl buffer (pH 7.4, 250 mM sucrose) with 2µL DMSO, CERT aliquot (12.5µg/well) with 2µL DMSO, and 1µL NR-ceramide (final concentration 1µM) in 10mM Tris.HCl buffer (pH 7.4, 250 mM sucrose) with 1µL DMSO. The plate was then sealed with transparent Thermowell seal tape and placed in the microplate reader (LABTECH) at 30°C with shaking. The fluorescence was measured from the top over 80min (number of cycles 35, delay 70 sec) with excitation filter 540 nm and emission filter 640 nm. The competitive CERT-binding activity was calculated using the formula: Ix = I(À2-Y)/I0(À1-X), where À1 is the average of the florescence of the control of NR-ceramide in Tris.HCl buffer, X is the average of the fluorescence of the buffer alone, À2 is the fluorescence average of the assay mixture, Y is the fluorescence average of the CERT aliquot with inhibitor/DMSO (Fig […]
It is however lower than the differentiation in the transfer assay (Fig S8B).
3.2 High throughput screening for CERT-activity and Data analysis
In order to validate the performance of developed assay in high-throughput screening format, the hits from ‘confirmed-hit group’ (45 hits) were screened for their competitive CERT-binding activity. The assay was performed as mentioned in the previous sub-section 3.1. Briefly, 1µL tested compound (final concentration 1µM, 2.5µM, 5µM, 10µM) or DMSO for control, and 98 µL CERT stock solution were sequentially added into a non-binding 96-well microplate. The plate was sealed and incubated at 30°C for 40 min, before 1µL NR-ceramide (final concentration 1µM) was added.
Controls per plate were triplicates of 10mM Tris.HCl buffer (pH 7.4, 250 mM sucrose) with 2µL DMSO, CERT aliquot (12.5µg/well) with 2µL DMSO, 1µL NR-ceramide (final concentration 1µM) in 10mM Tris.HCl buffer (pH 7.4, 250 mM sucrose), and HPA12 as a reference inhibitor (final concentration of 1µM, and 2.5µM, 5µM). The plate was sealed with transparent Thermowell seal tape and the assay was allowed to proceed as described above using excitation filter 540 nm and emission filter 640 nm. The competitive CERT-binding activity was calculated using the formula: Ix = I(À2-Y)/I0(À1-X), where À1 is the average of the florescence of the control 1µL NR-ceramide in Tris.HCl buffer, X is the average of the fluorescence of the buffer alone, À2 is the average of the fluorescence of assay mixture treated with tested compound or DMSO, Y is the average of the fluorescence of CERT aliquot with inhibitor/DMSO.

SMILES | activity in the NR ceramide competition assay
CCCC(=O)OCOC(=O)C1=C(C)NC(C)=C(C(=O)OC)C1c1cccc(Cl)c1Cl (centres unmarked) [6B11, Clevidipine butyrate] | high activity
O=C(NC1CCN(CCCCC2(C(=O)NCC(F)(F)F)c3ccccc3-c3ccccc32)CC1)c1ccccc1-c1ccc(C(F)(F)F)cc1 [8E8, lomitapide] | high activity
CC1=NN(c2ccc(C)c(C)c2)C(=O)/C1=N\Nc1cccc(-c2cccc(C(=O)O)c2)c1O [17C9, Eltrombopag] | very strong competition
Cc1cc(C2=NOC(c3cc(Cl)cc(Cl)c3)(C(F)(F)F)C2)ccc1C(=O)NCC(=O)NCC(F)(F)F (centres unmarked) [20D5, Fluralaner] | high activity
CCCCCCCCCCCC(=O)NC(CO)CC(O)c1ccccc1 (centres unmarked) [HPA-12, N-(3Hydroxy-1-hydroxymethyl-3-phenylpropyl)-dodecamide] | reverted to approximately the initial value
